Two compounds from US20240279232A1, “USE OF SUBSTITUTED 5-(4-METHYL-6-PHENYL-4H-BENZO[F]IMIDAZO[1,5-A][1,4] DIAZEPIN-3-YL)-1,2,4-O[…] THE TREATMENT OF INFLAMMATORY CONDITIONS” (priority 2021, published 2024) can be followed below.

One test has as its system Swiss Webster mice. Briefly: Formalin test. It counts as in vivo, mouse. Particulars: orally; GL-IV-03 10 mg/kg; ketoprofen 30 mg/kg. How it is done:
Webster mice were treated orally four days in advance with indicated compounds and doses before the injection of 2% formalin in the right hind paw. Mice were evaluated during the first 5 min (phase 1) and after 20 minutes (phase 2) for 5 minutes in 5 seconds intervals Licking and biting the right hind paw during a 5 second interval was noted and combined as total time addressing the injected paw. Data is given as mean with SEM (n =8). ** indicate p<0.01 (unpaired t-test).
The antinociceptive effect of GL-IV-03 was investigated with the formalin test. Paw injections of formalin elicited a biphasic pain response separated in time (1-5 minutes and 20-60 minutes). […] Sensorimotor impairment and sedation were investigated with mice that were trained to balance on a rotating rod over a period of three minutes (rotarod). The amount of time that mice remained balanced on the rod after intraperitoneal (i.p.) and oral (p.o.) treatment with GL-IV-03 and MP-IV-010 is summarized in FIG. 7B-7C. […] The effect was similar to non-steroidal anti-inflammatory drug ketoprofen at 30 mg/kg. Sedation and inhibition of sensorimotor coordination can influence licking and biting pain behaviors, prompting rotarod studies for GL-IV-03 and MP-IV-010. […] In contrast to diazepam, a benzodiazepine with high affinity for the α1β2/3γ2 and other GABAAR subtypes, was sedating at 5 mg/kg.
Formalin test. […]

In the next test the test system is Mouse microglia. Briefly: NO production (Griess assay), LPS/IFNγ-activated mouse microglia. It counts as cell-based. Particulars: dexamethasone 100 nM; GABA 1 μM; MP-IV-010 50 μM; GL-II-33 in the library screen. (The Griess reaction detects nitrite, a stable product of nitric oxide.)
Test [1] relates to GABAAR on immortalized human microglia. In words: Automated patch clamp, immortalized human microglia. It counts as cell-based. Particulars: 1 mM GABA, human cells. (In general: In patch-clamp work, channel activity is measured electrically.)
Test [2] deals with GABAAR on immortalized mouse microglia. Briefly: Automated patch clamp, immortalized mouse microglia. It counts as cell-based. To be noted: 1 mM GABA, mouse cells.

Each structure is given as a SMILES string.

`CC(C(=O)O)c1cccc(C(=O)c2ccccc2)c1` (stereo not shown) [ketoprofen, reference compound]: the “antinociceptive effect, formalin test (phase 1 and 2)” value with Swiss Webster mice is “similar”.
With `NCCCC(=O)O` [GABA], the “NO production of activated microglia (in words)” value with Mouse microglia is on record as “no effect”. Also, the maximum current response in test [1] amounted to 1245 pA; in test [2] it was 1514 pA.
